# Data from ChEMBL document CHEMBL3885881, “DrugMatrix”.
# Species on record: Rattus norvegicus
# Test: DrugMatrix - Regimen: Daily Repeat
# Assay type: toxicity, organism-based, Sprague-Dawley
# Parameters: regimen Daily Repeat, gender Male, age 6-8 weeks
# Conditions: in vivo, po, route oral GAVAGE, […]; for ABSOLUTE BASOPHIL / ABSOLUTE EOSINOPHIL / ABSOLUTE LYMPHOCYTE / ABSOLUTE MONOCYTE / ABSOLUTE SEGMENTED NEUTROPHIL / BASOPHIL / EOSINOPHIL / ERYTHROCYTE COUNT / HEMATOCRIT / HEMOGLOBIN / LEUKOCYTE COUNT / LYMPHOCYTE / MEAN CORPUSCULAR HEMOGLOBIN / MEAN CORPUSCULAR HEMOGLOBIN CONCENTRATION / MEAN CORPUSCULAR VOLUME / MONOCYTE / NEUTROPHIL / NUCLEATED RED BLOOD CELLS / PLATELET COUNT: tissue Blood; for ALANINE AMINOTRANSFERASE / ALBUMIN / ALKALINE PHOSPHATASE / ASPARTATE AMINOTRANSFERASE / BLOOD UREA NITROGEN / CARBON DIOXIDE / CHLORIDE / CHOLESTEROL / CREATINE PHOSPHOKINASE / CREATININE / GLUCOSE / LACTATE DEHYDROGENASE / LIPASE / PHOSPHORUS / POTASSIUM / SODIUM / TOTAL BILIRUBIN / TOTAL PROTEIN / URIC ACID: tissue Plasma
# [1] = 0 mg/kg, 72 h, dose level Control, time 3 day
# [2] = 0 mg/kg, dose level Control, time 7 day
# [3] = 130 mg/kg, 72 h, dose level Low, time 3 day
structure (smiles),measurement,setting,value
CCOC(=O)C(C)(C)Oc1ccc(Cl)cc1 [CLOFIBRATE],ABSOLUTE BASOPHIL,[1],0 CELLS/uL
same,ABSOLUTE EOSINOPHIL,[1],37.33 CELLS/uL
same,ABSOLUTE LYMPHOCYTE,[1],6295.33 CELLS/uL
same,ABSOLUTE MONOCYTE,[1],122.17 CELLS/uL
same,ABSOLUTE SEGMENTED NEUTROPHIL,[1],861.83 CELLS/uL
same,BASOPHIL,[1],0%
same,EOSINOPHIL,[1],0.5%
same,ERYTHROCYTE COUNT,[1],5.2 x10E6/uL
same,HEMATOCRIT,[1],32.58%
same,HEMOGLOBIN,[1],12.95 G/DL
same,LEUKOCYTE COUNT,[1],7.32 x10E3/uL
same,LYMPHOCYTE,[1],86%
same,MEAN CORPUSCULAR HEMOGLOBIN,[1],24.93 pg
same,MEAN CORPUSCULAR HEMOGLOBIN CONCENTRATION,[1],39.77 G/DL
same,MEAN CORPUSCULAR VOLUME,[1],62.65 fL
same,MONOCYTE,[1],1.67%
same,NEUTROPHIL,[1],11.83%
same,NUCLEATED RED BLOOD CELLS,[1],0 /100WBC
same,PLATELET COUNT,[1],1029 x10E3/uL
same,ALANINE AMINOTRANSFERASE,[1],63.67 u/L
same,ALBUMIN,[1],4.12 G/DL
same,ALKALINE PHOSPHATASE,[1],329.83 u/L
same,ASPARTATE AMINOTRANSFERASE,[1],77.67 u/L
same,BLOOD UREA NITROGEN,[1],18 mg/dL
same,CARBON DIOXIDE,[1],29.67 mmol/L
same,CHLORIDE,[1],102.67 MEQ/L
same,CHOLESTEROL,[1],64.5 mg/dL
same,CREATINE PHOSPHOKINASE,[1],178.67 u/L
same,CREATININE,[1],0.18 mg/dL
same,GLUCOSE,[1],163.83 mg/dL
same,LACTATE DEHYDROGENASE,[1],75.83 u/L
same,LIPASE,[1],10 u/L
same,PHOSPHORUS,[1],8.28 mg/dL
same,POTASSIUM,[1],4.79 MEQ/L
same,SODIUM,[1],142.22 MEQ/L
same,TOTAL BILIRUBIN,[1],0.22 mg/dL
same,TOTAL PROTEIN,[1],5.78 G/DL
same,URIC ACID,[1],0.87 mg/dL
same,ABSOLUTE BASOPHIL,[2],0 CELLS/uL
same,ABSOLUTE EOSINOPHIL,[2],19 CELLS/uL
same,ABSOLUTE LYMPHOCYTE,[2],7803.5 CELLS/uL
same,ABSOLUTE MONOCYTE,[2],117.83 CELLS/uL
same,ABSOLUTE SEGMENTED NEUTROPHIL,[2],1093 CELLS/uL
same,BASOPHIL,[2],0%
same,EOSINOPHIL,[2],0.17%
same,ERYTHROCYTE COUNT,[2],5.84 x10E6/uL
same,HEMATOCRIT,[2],35.75%
same,HEMOGLOBIN,[2],13.87 G/DL
same,LEUKOCYTE COUNT,[2],9.03 x10E3/uL
same,LYMPHOCYTE,[2],87.17%
same,MEAN CORPUSCULAR HEMOGLOBIN,[2],23.78 pg
same,MEAN CORPUSCULAR HEMOGLOBIN CONCENTRATION,[2],38.8 G/DL
same,MEAN CORPUSCULAR VOLUME,[2],61.25 fL
same,MONOCYTE,[2],1.17%
same,NEUTROPHIL,[2],11.5%
same,NUCLEATED RED BLOOD CELLS,[2],0 /100WBC
same,PLATELET COUNT,[2],1098.67 x10E3/uL
same,ALANINE AMINOTRANSFERASE,[2],66 u/L
same,ALBUMIN,[2],4.3 G/DL
same,ALKALINE PHOSPHATASE,[2],291.83 u/L
same,ASPARTATE AMINOTRANSFERASE,[2],80.5 u/L
same,BLOOD UREA NITROGEN,[2],15.67 mg/dL
same,CARBON DIOXIDE,[2],30 mmol/L
same,CHLORIDE,[2],101.67 MEQ/L
same,CHOLESTEROL,[2],69.67 mg/dL
same,CREATINE PHOSPHOKINASE,[2],363.33 u/L
same,CREATININE,[2],0.25 mg/dL
same,GLUCOSE,[2],146.5 mg/dL
same,LACTATE DEHYDROGENASE,[2],219.67 u/L
same,LIPASE,[2],11.33 u/L
same,PHOSPHORUS,[2],10.08 mg/dL
same,POTASSIUM,[2],5.22 MEQ/L
same,SODIUM,[2],144.67 MEQ/L
same,TOTAL BILIRUBIN,[2],0.12 mg/dL
same,TOTAL PROTEIN,[2],6.33 G/DL
same,URIC ACID,[2],0.75 mg/dL
same,ABSOLUTE BASOPHIL,[3],0 CELLS/uL
same,ABSOLUTE EOSINOPHIL,[3],0 CELLS/uL
same,ABSOLUTE LYMPHOCYTE,[3],6441.67 CELLS/uL
same,ABSOLUTE MONOCYTE,[3],98 CELLS/uL
same,ABSOLUTE SEGMENTED NEUTROPHIL,[3],743.67 CELLS/uL
same,BASOPHIL,[3],0%
same,EOSINOPHIL,[3],0%
same,ERYTHROCYTE COUNT,[3],5.19 x10E6/uL
same,HEMATOCRIT,[3],32.77%
same,HEMOGLOBIN,[3],13.27 G/DL
same,LEUKOCYTE COUNT,[3],7.28 x10E3/uL
same,LYMPHOCYTE,[3],88.83%
same,MEAN CORPUSCULAR HEMOGLOBIN,[3],25.65 pg
same,MEAN CORPUSCULAR HEMOGLOBIN CONCENTRATION,[3],40.57 G/DL
same,MEAN CORPUSCULAR VOLUME,[3],63.17 fL
same,MONOCYTE,[3],1.33%
same,NEUTROPHIL,[3],9.83%
same,NUCLEATED RED BLOOD CELLS,[3],0 /100WBC
same,PLATELET COUNT,[3],1091.67 x10E3/uL
same,ALANINE AMINOTRANSFERASE,[3],69.83 u/L
same,ALBUMIN,[3],4.22 G/DL
same,ALKALINE PHOSPHATASE,[3],373.67 u/L
same,ASPARTATE AMINOTRANSFERASE,[3],86 u/L
same,BLOOD UREA NITROGEN,[3],16.5 mg/dL
same,CARBON DIOXIDE,[3],30.17 mmol/L
same,CHLORIDE,[3],101.83 MEQ/L
same,CHOLESTEROL,[3],48.17 mg/dL
same,CREATINE PHOSPHOKINASE,[3],463.67 u/L
same,CREATININE,[3],0.14 mg/dL
same,GLUCOSE,[3],170.83 mg/dL
same,LACTATE DEHYDROGENASE,[3],85.33 u/L
same,LIPASE,[3],9.67 u/L
same,PHOSPHORUS,[3],8.43 mg/dL
same,POTASSIUM,[3],5.04 MEQ/L
same,SODIUM,[3],142.75 MEQ/L
same,TOTAL BILIRUBIN,[3],0.18 mg/dL
same,TOTAL PROTEIN,[3],5.87 G/DL
same,URIC ACID,[3],0.93 mg/dL
